Data on one compound can be found in ChEMBL document CHEMBL1667793, “Synthesis and DNA photocleavage by a pyridine-linked bis-acridine chromophore in the presence of copper(II): ionic strength effects” (Bioorg Med Chem Lett, 2011).

Assay type in all cases: nucleic-acid assay
Test [1] has as its system Nucleic Acid. The test is described as follows: Induction of Escherichia coli pUC19 DNA cleavage assessed as conversion of supercoiled DNA to nicked and linear form of DNA at 10 uM irradiated for 50 mins measured after 60 mins by ethidium bromide staining.
In test [2] the test system is Nucleic Acid. Briefly: Induction of Escherichia coli pUC19 DNA cleavage assessed as conversion of supercoiled DNA to nicked and linear form of DNA at 10 to 30 uM after 1 hr followed by irradiated for 60 mins by ethidium bromide staining in presence of 1 mol equivalent of copper chloride and 150 mM sodium chloride and 240 mM of potassium chloride.
Test [3] relates to Nucleic Acid. The test is described as follows: Inhibition of Escherichia coli pUC19 DNA photocleavage at 10 uM after 1 hr followed by irradiated for 60 mins by ethidium bromide staining in presence of 100 uM of sodium azide.
For test [4], the system named is Nucleic Acid. The test is described as follows: Inhibition of Escherichia coli pUC19 DNA photocleavage assessed as conversion of supercoiled DNA to linear form of DNA at 10 uM after 1 hr followed by irradiated for 60 mins by ethidium bromide staining in presence of 100 uM of sodium azide.
Test [5] concerns Nucleic Acid. The test is described as follows: Induction of Escherichia coli pUC19 DNA cleavage assessed as conversion of supercoiled DNA to nicked and linear form of DNA at 10 to 30 uM after 1 hr followed by irradiated for 60 mins by ethidium bromide staining in presence of 1 mol equivalent of copper chloride and 150 mM sodium chloride.
Test [6] has as its system Nucleic Acid. Briefly: Inhibition of Escherichia coli pUC19 DNA photocleavage assessed as conversion of supercoiled DNA to nicked form of DNA at 10 uM after 1 hr followed by irradiated for 60 mins by ethidium bromide staining in presence of 100 uM of sodium azide.
Test [7] relates to Calf thymus DNA. Briefly: Binding affinity to calf thymus DNA at 10 uM by UV-visible spectra analysis in presence of 1 mol equivalent of copper chloride and 260 mM of potassium chloride. The following applies: Bos taurus.
For test [8], the system named is Nucleic Acid. The test is described as follows: Inhibition of Escherichia coli pUC19 DNA photocleavage assessed as conversion of supercoiled DNA to nicked form of DNA at 10 uM after 1 hr followed by irradiated for 60 mins by ethidium bromide staining in presence of 100 uM of sodium benzoate and 1 mol equivalent of copper chloride.
The test system of test [9] is Nucleic Acid. Briefly: Induction of Escherichia coli pUC19 DNA cleavage assessed as conversion of supercoiled DNA to nicked and linear form of DNA at 2 to 20 uM irradiated for 50 mins measured after 60 mins by ethidium bromide staining in presence of 1 mol equivalent of copper chloride.
The test system of test [10] is Nucleic Acid. The test is described as follows: Inhibition of Escherichia coli pUC19 DNA photocleavage at 10 uM after 1 hr followed by irradiated for 60 mins by ethidium bromide staining in presence of 100 uM of sodium benzoate.
For test [11], the system named is Nucleic Acid. Briefly: Inhibition of Escherichia coli pUC19 DNA photocleavage assessed as conversion of supercoiled DNA to linear form of DNA at 10 uM after 1 hr followed by irradiated for 60 mins by ethidium bromide staining in presence of 100 uM of sodium benzoate.
The subject of test [12] is Nucleic Acid. The test is described as follows: Inhibition of Escherichia coli pUC19 DNA photocleavage assessed as conversion of supercoiled DNA to linear form of DNA at 10 uM after 1 hr followed by irradiated for 60 mins by ethidium bromide staining in presence of 100 uM of sodium azide and 1 mol equivalent of copper chloride.
Test [13] concerns Nucleic Acid. The test is described as follows: Inhibition of Escherichia coli pUC19 DNA photocleavage at 10 uM after 1 hr followed by irradiated for 60 mins by ethidium bromide staining in presence of 100 uM of sodium benzoate and 1 mol equivalent of copper chloride.
Test [14] concerns Nucleic Acid. The test is described as follows: Inhibition of Escherichia coli pUC19 DNA photocleavage assessed as conversion of supercoiled DNA to nicked form of DNA at 10 uM after 1 hr followed by irradiated for 60 mins by ethidium bromide staining in presence of 100 uM of sodium benzoate.
The subject of test [15] is Nucleic Acid. Briefly: Induction of Escherichia coli pUC19 DNA cleavage assessed as conversion of supercoiled DNA to nicked and linear form of DNA at 2 to 50 uM after 60 mins by ethidium bromide staining.
Test [16] deals with Calf thymus DNA. Briefly: Binding affinity to calf thymus DNA at 10 uM assessed as change in melting temperature in presence of copper. The conditions noted are these: Bos taurus.
The subject of test [17] is Nucleic Acid. Briefly: Inhibition of Escherichia coli pUC19 DNA photocleavage assessed as conversion of supercoiled DNA to nicked form of DNA at 10 uM after 1 hr followed by irradiated for 60 mins by ethidium bromide staining in presence of 100 uM of sodium azide and 1 mol equivalent of copper chloride.
The test system of test [18] is Calf thymus DNA. The test is described as follows: Binding affinity to calf thymus DNA at 10 uM assessed as change in melting temperature. The following applies: Bos taurus.
The test system of test [19] is Nucleic Acid. The test is described as follows: Inhibition of Escherichia coli pUC19 DNA photocleavage at 10 uM after 1 hr followed by irradiated for 60 mins by ethidium bromide staining in presence of 100 uM of sodium azide and 1 mol equivalent of copper chloride.
The subject of test [20] is Nucleic Acid. Briefly: Induction of Escherichia coli pUC19 DNA cleavage assessed as conversion of supercoiled DNA to nicked and linear form of DNA at 10 to 30 uM after 1 hr followed by irradiated for 60 mins by ethidium bromide staining in presence of 1 mol equivalent of copper chloride and 240 mM of potassium chloride.
Test [21] concerns Nucleic Acid. Briefly: Inhibition of Escherichia coli pUC19 DNA photocleavage assessed as conversion of supercoiled DNA to linear form of DNA at 10 uM after 1 hr followed by irradiated for 60 mins by ethidium bromide staining in presence of 100 uM of sodium benzoate and 1 mol equivalent of copper chloride.

Active and inactive are the calls of the source. The calls are words filed in the database; no cut-off is given here.

Turning to `Nc1ccc2cc3ccc(NCc4cccc(CNc5ccc6cc7ccc(N)cc7nc6c5)n4)cc3nc2c1`, the outcome in the test with Nucleic Acid [1], in the test on Nucleic Acid [2], in the test with Nucleic Acid [5], in the test with Calf thymus DNA [7], with Nucleic Acid [15] and in the test on Nucleic Acid [20] was Active. The inhibition with Nucleic Acid [3] was 34%; with Nucleic Acid [4] it was 80%; in the test on Nucleic Acid [6], 29%; in the test with Nucleic Acid [8], -7%; with Nucleic Acid [10], 0%; in the test on Nucleic Acid [11] it was 91%. Besides, the inhibition in the test with Nucleic Acid [12] is 82%; with Nucleic Acid [13], 0%; with Nucleic Acid [14], -10%; in the test on Nucleic Acid [17], -1%; in the test with Nucleic Acid [19], 5%; with Nucleic Acid [21], 88%. In addition, the outcome with Nucleic Acid [9] was inactive. The Tm in the test on Calf thymus DNA [16] stood at 80 °C; in the test with Calf thymus DNA [18], 79 °C.
